Experiment: Binding affinity against sigma receptor using radioligand ([3H](+)-pentazocine) binding assay

IC50 [nM]	Structure (SMILES)
109	c1ccc(CCCN2CCNCC2)cc1 [1-(3-Phenyl-propyl)-piperazine]
0.5	c1ccc(CCCN2CCN(CCCc3ccccc3)CC2)cc1 [1,4-Bis-(3-phenyl-propyl)-piperazine]
8.5	C[C@@H]1CN(CCCc2ccccc2)[C@@H](C)CN1 [(2S,5R)-2,5-Dimethyl-1-(3-phenyl-propyl)-piperazine]

Structure (SMILES)	IC50 [nM]
C[C@@H]1CN(CCOC(c2ccccc2)c2ccccc2)[C@@H](C)CN1CCCc1ccccc1 [(2S,5R)-1-(2-Benzhydryloxy-ethyl)-2,5-dimethyl-4-(3-phenyl-propyl)-piperazine]	8.6
Fc1ccc(C(OCCN2CCN(CCOC(c3ccc(F)cc3)c3ccc(F)cc3)CC2)c2ccc(F)cc2)cc1 [1,4-Bis-{2-[bis-(4-fluoro-phenyl)-methoxy]-ethyl}-piperazine]	> 10000

Experiment: as above
Remark: another data set of the same source

Structure (SMILES)	IC50 [nM]
C[C@@H]1CN(CCOC(c2ccccc2)c2ccccc2)[C@@H](C)CN1CCOC(c1ccccc1)c1ccccc1 [(2S,5R)-1,4-Bis-(2-benzhydryloxy-ethyl)-2,5-dimethyl-piperazine]	4000
C[C@@H]1CN(CCOC(c2ccc(F)cc2)c2ccc(F)cc2)[C@@H](C)CN1CCOC(c1ccc(F)cc1)c1ccc(F)cc1 [(2S,5R)-1,4-Bis-{2-[bis-(4-fluoro-phenyl)-methoxy]-ethyl}-2,5-dimethyl-piperazine]	3640
NCCCCNCCOC(c1ccccc1)c1ccccc1 [N*1*-(2-Benzhydryloxy-ethyl)-butane-1,4-diamine]	> 10000
Fc1ccc(C(OCCN2CCNCC2)c2ccc(F)cc2)cc1 [1-{2-[Bis-(4-fluoro-phenyl)-methoxy]-ethyl}-piperazine]	965
c1ccc(CCCN2CCCCC(NCCOC(c3ccccc3)c3ccccc3)C2)cc1 (stereo unspecified) [(2-Benzhydryloxy-ethyl)-[1-(3-phenyl-propyl)-azepan-3-yl]-amine]	78
c1ccc(CCCN2CCCCN(CCOC(c3ccccc3)c3ccccc3)CC2)cc1 [1-(2-Benzhydryloxy-ethyl)-4-(3-phenyl-propyl)-[1,4]diazocane]	180
C[C@@H]1CN(CCOC(c2ccccc2)c2ccccc2)[C@@H](C)CN1 [(2S,5R)-1-(2-Benzhydryloxy-ethyl)-2,5-dimethyl-piperazine]	67
c1ccc(CCCN2CCCN(CCOC(c3ccccc3)c3ccccc3)CC2)cc1 [1-(2-Benzhydryloxy-ethyl)-4-(3-phenyl-propyl)-[1,4]diazepane]	26
CNCCN(C)CCOC(c1ccccc1)c1ccccc1 [N-(2-Benzhydryloxy-ethyl)-N,N'-dimethyl-ethane-1,2-diamine]	231
c1ccc(CCCNC2CCCCN(CCOC(c3ccccc3)c3ccccc3)C2)cc1 (stereo unspecified) [[1-(2-Benzhydryloxy-ethyl)-azepan-3-yl]-(3-phenyl-propyl)-amine]	83
c1ccc(CCCNCCCCNCCOC(c2ccccc2)c2ccccc2)cc1 [N-(2-Benzhydryloxy-ethyl)-N'-(3-phenyl-propyl)-butane-1,4-diamine]	1050
c1ccc(C(OCCN2CCNCC2)c2ccccc2)cc1 [1-(2-Benzhydryloxy-ethyl)-piperazine]	1480
C[C@@H]1CN(CCCc2ccccc2)[C@@H](C)CN1CCCc1ccccc1 [(2S,5R)-2,5-Dimethyl-1,4-bis-(3-phenyl-propyl)-piperazine]	8.5
CN(CCCc1ccccc1)CCN(C)CCOC(c1ccccc1)c1ccccc1 [N-(2-Benzhydryloxy-ethyl)-N,N'-dimethyl-N'-(3-phenyl-propyl)-ethane-1,2-diamine]	34
C[C@@H]1CN(CCOC(c2ccc(F)cc2)c2ccc(F)cc2)[C@@H](C)CN1 [(2S,5R)-1-{2-[Bis-(4-fluoro-phenyl)-methoxy]-ethyl}-2,5-dimethyl-piperazine]	65
c1ccc(C(OCCN2CCN(CCOC(c3ccccc3)c3ccccc3)CC2)c2ccccc2)cc1 [1,4-Bis-(2-benzhydryloxy-ethyl)-piperazine]	> 10000

— BindingDB's records for doi:10.1021/jm960305h (National Institute of Diabetes and Digestive and Kidney …, 1997)
